Results: patent US12427103B2, “Cosmetic composition containing Hibiscus manihot l. extract and method for preparing the same” (ALL IN ON Co., Ltd, priority 2022, dated 2025)

How the values were obtained:
RAW264.7 cells = test: Anti-inflammatory effect: nitric oxide (NO) formation inhibition, GRIESS method, LPS stimulus; type: cell-based, mouse; conditions: RAW264.7, 10 ppm, LPS 1 μg, 24 hours
Description: An anti-inflammatory effect was confirmed with respect to above Examples 1 to 4 and Comparative Examples 1 to 8.
In order to confirm the anti-inflammatory effect and skin trouble alleviation effect of Examples 1 to 4 and Comparative Examples 1 to 8, an experiment on nitric oxide (NO) formation inhibitory power was performed with a GRIESS method using RAW264.7 cell lines (ATCC number: CRL-2278).
Specifically, RAW264.7 cells, which are mouse macrophages, were subcultured several times and placed in a 24-well plate so that 3×10^5 cells were put into each well, and then incubated for 24 hours. Then, Examples 1 to 4 and Comparative Examples 1 to 8 were replaced with a diluted cell medium at a concentration of 10 ppm. At this time, L-NMMA (L-NG-Monomethylarginine), a NO-production inhibitor, was treated together as a positive control and incubated for 30 minutes, and then 1 μg of lipopolysaccharide (LPS) was treated as a stimulus and cultured for 24 hours. 100 μl of the supernatant was transferred to a 96-well plate and reacted at room temperature for 10 minutes with the addition of 100 μl of GRIESS solution, so as to measure the absorbance at 540 nm, thereby determining an NO inhibitory effect of the compound of Formula 1, and the results are shown in table 4 below.

[1] = Antioxidant effect: free radical scavenging by DPPH method; type: biochemical; conditions: 30 minutes, 517 nm, based on vitamin C 0.1% as 100%
Description: An antioxidant effect experiment was performed to confirm an antioxidant effect of Examples 1 to 4 and Comparative Examples 1 to 8 through a free radical scavenging effect using a DPPH method according to a known method. 100 μl of Examples 1 to 4 and Comparative Examples 1 to 8 were dispensed into 96 microplates, and 10 μl of a 2,2-diphenyl-1-picrylhydrazyl (DPPH) solution dissolved in ethanol to reach 1 mM was added thereto. After a reaction in 30 minutes later at room temperature, absorbance was measured at 517 nm to measure a free radical scavenging activity. An experiment was performed with vitamin C at a concentration of 0.1% as a control group along with the compositions of Examples 1 to 4 and Comparative Examples 1 to 8. The results are shown in table 3 based on the free radical scavenging effect of vitamin C as 100%.

CNC(=N)NCCC[C@H](N)C(=O)O [L-NMMA, L-NG-Monomethylarginine]
NO production inhibition rate (%) (RAW264.7 cells): 39.14%

O=C1O[C@H]([C@@H](O)CO)C(O)=C1O [vitamin C]
Free radical scavenging effect (%) [1]: 100%
